Data on 33 compounds can be found in patent publication US20160137639A1, “TRIAZOLE-ISOXAZOLE COMPOUND AND MEDICAL USE THEREOF” (JAPAN TOBACCO INC., priority 2012, published 2016).

For assay [1], the target named is T1, human RORγ (Homo sapiens, UniProt P51449).
T1 construct: human, NM_005060.3 and from Ser253 to Lys518; expressed in transfected cells; host or cells: CHO cells (transient co-transfection with pG5-Luc reporter)
T1 sequence (P51449 253-518): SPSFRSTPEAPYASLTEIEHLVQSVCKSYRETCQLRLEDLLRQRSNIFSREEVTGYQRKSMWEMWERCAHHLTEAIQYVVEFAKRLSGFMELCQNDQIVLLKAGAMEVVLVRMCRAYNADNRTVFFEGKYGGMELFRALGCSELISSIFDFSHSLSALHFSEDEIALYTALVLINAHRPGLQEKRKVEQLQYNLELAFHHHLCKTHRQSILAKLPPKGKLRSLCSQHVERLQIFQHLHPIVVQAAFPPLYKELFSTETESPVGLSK
Put plainly: Luciferase reporter gene assay of inhibitory effect against RORγ transcriptional activity (GAL4-hRORγ plasmid in CHO cells). In kind it is cell-based. The settings on record: read-out: LUC EC50 (μM) hRORg. On the procedure:
(§1) In vitro assay of inhibitory effect against RORγ transcriptional activity
(§2) Inhibitory effect of test article on transcriptional activity of RORγ was measured by means of the following luciferase reporter gene assay.
(§3) A cDNA encoding human and mouse RORγ ligand binding domain (LBD) were obtained based on the reported sequences (Genebank accession number and sequence: human, NM_005060.3 and from Ser253 to Lys518; mouse, NM_011281.2 and from Ile251 to Lys516).
(§4) The cDNA of human RORγ or mouse RORγ was inserted into pFA-CMV vector (Strategene), which expresses GAL4-DNA binding domain fusion protein.
(§5) The resulting plasmids are hereinafter referred to as GAL4-hRORγ plasmid and GAL4-mRORγ plasmid, respectively.
(§6) Human or mouse GAL4-RORγ plasmid was transiently co-transfected into Chinese hamster ovary cells (CHO cells) with […] plasmid, a reporter plasmid expressing firefly luciferase depending on GAL4.
(§7) TransIT CHO transfection reagent (Mirus) was used to co-transfect human or mouse GAL4-RORγ plasmid into CHO cells with pG5-Luc plasmid.
(§8) One day before the assay, CHO cells were suspended in HAM F-12 Nutrient medium containing 10 v/v % fetal bovine serum and seeded at 6×10^6 cells per 175 cm^2 cell culture flask.
(§9) Fifty four micro litters of Transit-CHO reagent was added into a 15 ml tube containing 1.16 ml of HAM F-12 Nutrient medium without fetal bovine serum and incubated at room temperature for 10 min.
A total 36 uL plasmid solution containing the GAL4-hRORγ plasmid (400 ng), pG5-Luc plasmid (9000 ng) and pcDNA3 plasmid (8600 ng) were added into the tube and mixed gently.
(§10) The mixture was incubated at room temperature for 10 min.
(§11) Nine micro litters of CHO Mojo Reagent was then added into each tube and mixed gently. The mixture was incubated at room temperature for 10 min.
(§12) The resultant transfection reagent was applied to the cell culture.
(§13) After incubation at 37° C., 5% CO2 for 4 hr, the transfected CHO cells were harvested by a trypsin treatment.
(§14) The collected cells were resuspended in HAM F-12 Nutrient medium supplemented with 10 v/v % fetal bovine serum and plated into a 384-well-white plate at 8,000 cells/50 uL/well.
(§15) The plate was incubated at room temperature for 1 hour and then further incubated at 37° C., 5% CO2 for 3 hours.
(§16) The test articles were dissolved in dimethylsulfoxide (DMSO) to obtain a concentration of 10 mmol/L. The resulting solution was diluted with the medium just before use and added to the cells in the plate to prepare 8 different concentrations of the test article.
(§17) The final concentration of DMSO was 0.1 v/v % After the addition of the test articles, the cells were incubated at 37° C., 5% CO2 for 2 days.
(§18) RORγ transcriptional activity was detected as the intracellular luciferase activity using SteadyLite HTS Reporter Gene Assay System (Perkin Elmer).
(§19) StedyLite Reagent was diluted five-fold into a solution containing 10 mM Tricine, 0.2% w/v BSA, 0.02% v/v Tween-20 to obtain the luciferase substrate solution.
(§20) After the measurement of the cell viability using Resazurin, the culture media in the 384 well-plate were removed. Then the Luc substrate solution was added into each well.
(§21) After the incubation at room temperature for 10 minutes, luminescence of each well was measured by a microplate reader.
(§22) The luciferase activity derived from the luminescence count in the vehicle-control well treated with 0.1% DMSO alone was defined as 100%, and the luciferase activity in the test article was calculated as a percentage (%-of-control) based on the value of the vehicle-control.
(§23) EC50 value of test article was calculated by curve fitting with GraphPad Prism.
(§24) The luminescence counts at the concentration of the test article where the cytotoxicity was observed were excluded from the data analysis.

Assay [2] addresses T2, mouse RORγ (Mus musculus, UniProt P51450).
T2 construct: mouse, NM_011281.2 and from Ile251 to Lys516; expressed in transfected cells; host or cells: CHO cells (transient co-transfection with pG5-Luc reporter)
T2 sequence (P51450 251-516): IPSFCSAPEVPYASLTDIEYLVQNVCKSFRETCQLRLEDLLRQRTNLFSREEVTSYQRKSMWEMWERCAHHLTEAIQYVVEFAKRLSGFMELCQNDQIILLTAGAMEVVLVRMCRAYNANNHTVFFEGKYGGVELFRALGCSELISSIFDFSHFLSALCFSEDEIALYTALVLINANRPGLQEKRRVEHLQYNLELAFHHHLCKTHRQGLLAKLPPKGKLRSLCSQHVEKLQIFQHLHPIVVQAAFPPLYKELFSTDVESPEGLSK
As to the kind of experiment: Luciferase reporter gene assay of inhibitory effect against RORγ transcriptional activity (GAL4-mRORγ plasmid in CHO cells). In kind it is cell-based. The settings on record: read-out: LUC EC50 (μM) mRORg. The protocol: as §1, §2, §3, §4, §5, §6, §7, §8, §9, §10, §11, §12, §13, §14, §15, §16, §17, §18, §19, §20, §21, §22, §23, §24
For orientation: In a reporter assay the amount or activity of a reporter protein is the signal.

Some results are limits rather than exact numbers.

By EC50 is commonly meant the concentration giving half of the maximal effect. For the compound `C=CCC(CC(=O)Nc1cccc(Cl)c1C)c1nnc(CCC2CCCCC2)n1C1CC1` (racemic) [Example F-244], the half-maximal effective concentration (EC50) in assay [1] and in assay [2] was less than 3 µM in each case.

Take `C=CCC(CC(=O)NCc1ccc(C)cc1OC)c1nnc(CCC2CCCCC2)n1C1CC1` (racemic) [Example F-246]: the EC50 in assay [1] and in assay [2] was less than 3 µM throughout.

For the compound `Cc1c(Cl)cccc1NC(=O)CC(CCO)c1nnc(CCC2CCCCC2)n1C1CC1` (racemic) [Example F-247], the concentration for a half-maximal effect (EC50) in assay [1] and in assay [2] was less than 3 µM each time.

On to `Cc1ccc(NC(=O)CC(CCO)c2nnc(CCC3CCCCC3)n2C2CC2)c(C)c1` (racemic) [Example F-248], for which the concentration for a half-maximal effect (EC50) in assay [1] and in assay [2] was less than 3 µM in each case.

In the case of `COc1cc(C)ccc1CNC(=O)CC(CCO)c1nnc(CCC2CCCCC2)n1C1CC1` (racemic) [Example F-249], the EC50 in assay [1] and in assay [2] was less than 3 µM in each case.

`Cc1ccc(NC(=O)CC(CC(=O)O)c2nnc(CCCC(C)C)n2C2CC2)c(C)c1` (racemic) [Example F-252]: the EC50 in assay [1] and in assay [2] was greater than 3 µM throughout.

With `Cc1ccc(NC(=O)CC(CC(N)=O)c2nnc(CCCC(C)C)n2C2CC2)c(C)c1` (racemic) [Example F-253], the concentration for a half-maximal effect (EC50) in assay [1] and in assay [2] was greater than 3 µM throughout.

As for `CNC(=O)CC(CC(=O)Nc1ccc(C)cc1C)c1nnc(CCCC(C)C)n1C1CC1` (racemic) [Example F-265], the EC50 in assay [1] is greater than 3 µM; in assay [2] it was less than 3 µM.

As for `Cc1ccc(NC(=O)CC(CC(=O)N(C)C)c2nnc(CCCC(C)C)n2C2CC2)c(C)c1` (racemic) [Example F-266], the EC50 in assay [1] and in assay [2] was less than 3 µM in each case.

Regarding `Cc1ccc(NC(=O)CC(CO)c2nnc(CCCC(C)C)n2C2CC2)c(C)c1` (racemic) [Example F-271], the half-maximal effective concentration (EC50) in assay [1] and in assay [2] was less than 3 µM each time.

For the compound `Cc1ccc(NC(=O)CC(CCN2C(=O)c3ccccc3C2=O)c2nnc(CCCC(C)C)n2C2CC2)c(C)c1` (racemic) [Example F-272], the EC50 in assay [1] and in assay [2] was less than 3 µM each time.

On to `Cc1ccc(NC(=O)CC(CCN)c2nnc(CCCC(C)C)n2C2CC2)c(C)c1` (racemic) [Example F-273], for which the 50% effective concentration (EC50) in assay [1] and in assay [2] was greater than 3 µM each time.

Turning to `Cc1ccc(NC(=O)CC(CN)c2nnc(CCCC(C)C)n2C2CC2)c(C)c1` (racemic) [Example F-274], the EC50 in assay [1] and in assay [2] was greater than 3 µM each time.

For the compound `CC(=O)NCCC(CC(=O)Nc1ccc(C)cc1C)c1nnc(CCCC(C)C)n1C1CC1` (racemic) [Example F-275], the concentration for a half-maximal effect (EC50) in assay [1] and in assay [2] was greater than 3 µM in each case.

In the case of `Cc1ccc(NC(=O)CC(CCN(C)C)c2nnc(CCCC(C)C)n2C2CC2)c(C)c1` (racemic) [Example F-276], the EC50 in assay [1] and in assay [2] was greater than 3 µM each time.

As to `CC(=O)NCC(CC(=O)Nc1ccc(C)cc1C)c1nnc(CCCC(C)C)n1C1CC1` (racemic) [Example F-277], the results for the EC50 in assay [1] and in assay [2] were greater than 3 µM and less than 3 µM, respectively.

For the compound `Cc1ccc(NC(=O)CC(CN(C)C)c2nnc(CCCC(C)C)n2C2CC2)c(C)c1` (racemic) [Example F-278], the EC50 in assay [1] is greater than 3 µM; in assay [2], less than 3 µM.

For the compound `COc1cc(C)ccc1CNC(=O)[C@H]1CN(C(C)=O)C[C@@H]1c1nnc(CCCC(C)C)n1C1CC1` (racemic) [Example F-279], the EC50 in assay [1] and in assay [2] was less than 3 µM in each case.

Regarding `Cc1ccc(NC(=O)CC(CCCN2C(=O)c3ccccc3C2=O)c2nnc(CCCC(C)C)n2C2CC2)c(C)c1` (racemic) [Example F-281], the EC50 in assay [1] and in assay [2] was less than 3 µM in each case.

In the case of `Cc1ccc(NC(=O)CC(CCCN)c2nnc(CCCC(C)C)n2C2CC2)c(C)c1` (racemic) [Example F-282], the EC50 in assay [1] and in assay [2] was greater than 3 µM throughout.

As to `Cc1ccc(NC(=O)CC(CCC(=O)O)c2nnc(CCCC(C)C)n2C2CC2)c(C)c1` (racemic) [Example F-283], the concentration for a half-maximal effect (EC50) in assay [1] and in assay [2] was greater than 3 µM each time.

`Cc1ccc(NC(=O)CC(CCC(N)=O)c2nnc(CCCC(C)C)n2C2CC2)c(C)c1` (racemic) [Example F-284]: the EC50 in assay [1] and in assay [2] was greater than 3 µM in each case.

With `CNC(=O)CCC(CC(=O)Nc1ccc(C)cc1C)c1nnc(CCCC(C)C)n1C1CC1` (racemic) [Example F-285], the 50% effective concentration (EC50) was greater than 3 µM in assay [1] and less than 3 µM in assay [2].

On to `Cc1ccc(NC(=O)CC(CCC(=O)N(C)C)c2nnc(CCCC(C)C)n2C2CC2)c(C)c1` (racemic) [Example F-286], for which the EC50 in assay [1] and in assay [2] was less than 3 µM in each case.

Turning to `CC(=O)NCCCC(CC(=O)Nc1ccc(C)cc1C)c1nnc(CCCC(C)C)n1C1CC1` (racemic) [Example F-287], the concentration for a half-maximal effect (EC50) in assay [1] and in assay [2] was greater than 3 µM throughout.

On to `Cc1ccc(NC(=O)CC(CCCN(C)C)c2nnc(CCCC(C)C)n2C2CC2)c(C)c1` (racemic) [Example F-288], for which the concentration giving a half-maximal response (EC50) in assay [1] and in assay [2] was greater than 3 µM each time.

Consider `COC(C)(C)CCCc1nnc([C@H]2CN(C(C)=O)C[C@@H]2C(=O)Nc2ccc(C)cc2C)n1C1CC1` (racemic) [Example F-290], for which the EC50 in assay [1] and in assay [2] was greater than 3 µM each time.

`CCC(C)(C)CCc1nnc([C@H]2CN(C(C)=O)C[C@@H]2C(=O)Nc2ccc(C)cc2C)n1C1CC1` (racemic) [Example F-299]: the EC50 in assay [1] and in assay [2] was less than 3 µM in each case.

Turning to `CC(=O)N1C[C@H](C(=O)Nc2ccc(C)cc2C)[C@@H](c2nnc([C@H]3CC[C@H](C(C)C)CC3)n2C2CC2)C1` (racemic) [Example F-300], the EC50 in assay [1] and in assay [2] was less than 3 µM in each case.

Consider `C=CCC(CC(=O)Nc1ccc(C)cc1C)c1nnc(CCCC(C)(C)C)n1C1CC1` (racemic) [Example F-306], for which the EC50 in assay [1] and in assay [2] was less than 3 µM in each case.

Consider `Cc1ccc(NC(=O)CC(CCO)c2nnc(CCCC(C)(C)C)n2C2CC2)c(C)c1` (racemic) [Example F-307], for which the concentration for a half-maximal effect (EC50) in assay [1] and in assay [2] was less than 3 µM in each case.

Regarding `CC(=O)N1C[C@H](C(=O)Nc2ccc(C)cc2C)[C@@H](c2nnc(-c3ccc(C(C)C)cc3)n2C2CC2)C1` (racemic) [Example F-319], the EC50 in assay [1] and in assay [2] was less than 3 µM each time.

For `CC(=O)N1C[C@H](C(=O)Nc2ccc(C)cc2C)[C@@H](c2nnc(CCC(C)(C)C(C)C)n2C2CC2)C1` (racemic) [Example F-321], the concentration giving a half-maximal response (EC50) in assay [1] and in assay [2] was less than 3 µM in each case.
